# Test results reported in ChEMBL document CHEMBL1125851, “Trans-esterification reactions yield novel masked phosphate derivatives of the anti-cancer agent araC” (Bioorg Med Chem Lett, 1991).
# Tested on: Nucleic Acid
# Assay: The compound was tested for its ability to inhibit the incorporation of tritiated thymidine into mammalian epithelial cells (DNA) at 30 uM dose
# Assay type: cell-based
# Details: Epithelial cell
row,Structure (SMILES),inhibition
1,Nc1ccn([C@@H]2O[C@H](CO)[C@@H](O)[C@@H]2O)c(=O)n1,83%
2,Nc1ccn(C2O[C@H](COP(=O)(OCC(Cl)(Cl)Cl)OCC(Cl)(Cl)Cl)[C@@H](O)[C@@H]2O)c(=O)n1 (stereo partly drawn),91%
3,CCCOP(=O)(OC[C@H]1OC(n2ccc(N)nc2=O)[C@@H](O)[C@@H]1O)OCC(Cl)(Cl)Cl (stereo partly drawn),40%
4,"CCOP(=O)(OC[C@H]1OC(n2ccc(N)nc2=O)[C@@H](O)[C@@H]1O)OCC(Cl)(Cl)Cl (single isomer, unassigned; form 1)",31%
5,CCCCNP(=O)(OC[C@H]1OC(n2ccc(N)nc2=O)[C@@H](O)[C@@H]1O)OCC(Cl)(Cl)Cl (stereo partly drawn),48%
6,CCCNP(=O)(OC[C@H]1OC(n2ccc(N)nc2=O)[C@@H](O)[C@@H]1O)OCC(Cl)(Cl)Cl (stereo partly drawn),45%
7,COP(=O)(OC[C@H]1OC(n2ccc(N)nc2=O)[C@@H](O)[C@@H]1O)OCC(Cl)(Cl)Cl (stereo partly drawn),22%
8,"CCOP(=O)(OC[C@H]1OC(n2ccc(N)nc2=O)[C@@H](O)[C@@H]1O)OCC(Cl)(Cl)Cl (single isomer, unassigned; form 2)",30%
